“And” between values parts separate entries of the source, which are not always exact repeats. Equal entries are not always repeated. Where two headings read alike, the source gives them in different places. *1 amine or outer side, *2 acyl side, *3 side chain or, on linkers, in order; H or OH if unused. Where a SMILES comes first, the peptide text is derived from it. Bridges are numbered along the chain shown (N, C = ends). [ ]: non-standard residue; d: D form. Adda = CO[C@@H](Cc1ccccc1)[C@@H](C)/C=C(C)/C=C/[C@H](N[*:1])[C@H](C)C(=O)[*:2]; dAsp(3S-Me) = C[C@H](C(=O)[*:3])[C@@H](N[*:1])C(=O)[*:2]; d(γGlu) = O=C(O)[C@@H](CCC(=O)[*:2])N[*:1]; hTyr = N[C@@H](CCc1ccc(O)cc1)C(=O)O; NMeA = CN[C@@H](C)C(=O)O; NMeDha = C=C(NC)C(=O)O; CO = O=C([*:1])[*:2]
How the values were obtained:
[1] = Insertion into lipid monolayer (Langmuir trough, surface pressure); assay type: physicochemical; conditions: for insertion kinetics into the lipid monolayer (surface pressure increase): 20 µM, initial pressure ~11 mN/m; for critical pressure of insertion: extrapolation to zero pressure variation (ΔΠ = 0), 20 µM CCP
Experimental: Lateral pressure measurements were carried out in a Langmuir trough (MicroTrough-S system; Kibron, Helsinki, Finland) at room temperature (25 °C) under constant stirring. The aqueous sub-phase was 500 µL 10 mM Hepes, 200 mM NaCl, and pH 7.5.
To create lipid monolayers, dioleylposphatidylcholine and cholesterol (70:30) were dissolved together in chloroform/methanol (2:1, v/v) and gently spread over the sub-phase. The desired initial surface pressure was obtained by changing the amounts of the lipid mixture applied to the air–water interface. After solvent evaporation (10 min), each CCP was separately injected through a hole that was connected to the sub-phase, at a final concentration in the Langmuir trough of 20 µM. The changes in surface pressure versus time were recorded until a stable signal was obtained. […] The increase in the surface pressure (∆Π) was plotted versus the initial pressure (Π0), and the critical pressures were determined using linear regression with Prism 5 software (GraphPad, Inc., La Jolla, CA, USA).

[2] = target: T1, Ser/Thr protein phosphatase type-2A (PP2A) (Bos taurus, UniProt P67774); experiment: Colorimetric protein phosphatase inhibition assay, p-nitrophenyl phosphate substrate; assay type: biochemical, bovine
T1 construct: PP2A; from bovine kidney; purchased Sigma P1868; host or cells: bovine kidney (tissue-purified)
Experimental: The inhibition of Ser/Thr protein phosphatases by the CCPs was measured using the colorimetric inhibition assay described by An and Carmichael and Gkelis et al., with some modifications. […] Enzymes, PP1 and PP2A, were diluted in reaction buffer #1 (50 mM Tris-HCl, 1.0 g/L bovine serum albumin, 1.0 mM MnCl2, 2.0 mM dithiothreitol, pH 7.4), and p-nitrophenyl phosphate was prepared in substrate buffer (0.1 M glycine, pH 10.4, 1 mM MgCl2, 1 mM ZnCl2). The assay was performed by the addition of each CCP (as a potential inhibitor; final concentrations, 0.1, 1, 10, and 100 µM) to the enzyme solution (i.e., PP1 and PP2A; final concentrations, 1 U/well and 0.01 U/well, respectively, where 1 U hydrolyzes 1 nmole of substrate per minute at pH 7.4 at 30 °C). After a few seconds of gentle shaking, the microplate was kept at room temperature for 5 min, followed by the addition of reaction buffer #2 (50 mM Tris-HCl, 0.5 g/L bovine serum albumin, 0.2 mM MnCl2, 20 mM MgCl2, and pH 8.1) for PP1, or reaction buffer #1 for PP2A. The reactions were started by the addition of p-nitrophenyl phosphate (final concentrations, 15 mM for PP1 and 10 mM for PP2A) and were carried out for 120 min at 37 °C. The hydrolysis of p-nitrophenyl phosphate to […] was recorded at 405 nm using a microplate reader (Tecan, Austria). The inhibition percentages (X) were calculated from the absorbances of the samples after incubation for 30 min, as according to Equation (1):X (%) = (APP − AS)/APP × 100,(1) where APP is the absorbance of the control sample (i.e., enzyme only), and AS is the absorbance of the test sample (i.e., enzyme with potential inhibitor). […] All measurements were repeated a minimum of three independent times, with five technical replicates per experiment. IC50 values are expressed as means ± SD.

ACTB = experiment: Gene expression by quantitative real-time PCR in U-87MG cells; assay type: cell-based, human; conditions: 24 h, relative to non-treated control
Experimental: (§1) Cells were seeded onto 6-well plates, left to attach for 16 h, and treated with each non-hCCP separately (0.1–10 µM) and the hepatotoxic MC-LR (0.01–1 µM) for 24 h at 37 °C in the CO2 incubator. The total RNA from the cells (0.5–1.0 × 10^6 cells) was isolated using the TRIzol reagent (Invitrogen), and the cDNA was synthesized using 1 μg total RNA with cDNA high-capacity archive kits (Applied Biosystems, Foster City, CA, USA), according to the manufacturer’s protocol.
(§2) The expression levels of TUBA1A, ACTB, NES, and GFAP were quantified using quantitative real-time PCR (ABI 7900 HT Sequence Detection System; Applied Biosystems). TaqMan Universal PCR Master Mix and the following TaqMan Gene Expression Assays were used: TUBA1A: tubulin, alpha 1a, Hs00362387_m1; ACTB: actin, beta, Hs99999903_m1; NES, nestin, Hs00707120_s1; and GFAP, glial fibrillary acidic protein, and Hs00157674_m1 (all from Applied Biosystems). Amplification of a glyceraldehyde 3-phosphate dehydrogenase probe GAPDH (Human Endogenous Controls, Cat. # 4310884E; Applied Biosystems) was performed as an internal control. The conditions for the quantitative real-time PCR were as follows: 50 °C for 2 min, 95 °C for 10 min, 40 cycles of 95 °C for 15 s, and 60 °C for 1 min.
(§3) The data obtained from the TaqMan Gene Expression Assays were analyzed using the ΔΔCt algorithm. Two replicates per concentration and three independent experiments were performed. The statistical significance between the controls and the treated groups was determined using two-tailed Student’s t-tests, where p < 0.05 was statistically significant. In addition, the relative expression was normalized to the housekeeping gene GAPDH (relative quantification), with at least three sample concentrations used for each gene in both untreated cell lines.

GFAP = experiment: as above; assay type: cell-based, human; conditions: 24 h, relative to non-treated control
Experimental: as §1, §2, §3

NES = experiment: as above; assay type: cell-based, human
Experimental: as §1, §2, §3

TUBA1A = experiment: as above; assay type: cell-based, human
Experimental: as §1, §2, §3

[3] = means ± SD, p-nitrophenyl phosphate 10 mM
[4] = U-87MG, 0.1 µM CCP, 24 h, relative to non-treated control
[5] = U-87MG, 1 µM CCP, 24 h, relative to non-treated control
[6] = U-87MG, 10 µM CCP, 24 h, relative to non-treated control

T1 sequence (P67774 whole entry): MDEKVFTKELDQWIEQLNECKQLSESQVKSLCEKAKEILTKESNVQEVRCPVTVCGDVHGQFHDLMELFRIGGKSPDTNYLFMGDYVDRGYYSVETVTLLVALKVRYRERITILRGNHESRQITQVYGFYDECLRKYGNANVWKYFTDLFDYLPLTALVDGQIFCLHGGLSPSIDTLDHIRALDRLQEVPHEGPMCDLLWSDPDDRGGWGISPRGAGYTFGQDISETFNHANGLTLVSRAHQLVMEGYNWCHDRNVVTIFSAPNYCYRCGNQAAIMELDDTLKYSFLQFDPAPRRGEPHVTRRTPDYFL

| Structure (SMILES) | insertion kinetics into the lipid monolayer (surface pressure increase) [1] | critical pressure of insertion [1] [mN/m] | IC50 [2, 3] [µM] | Changes in gene expression of ACTB (ACTB; 0.1 µM CCP) | Changes in gene expression of ACTB (ACTB; 1 µM CCP) | Changes in gene expression of ACTB (ACTB; 10 µM CCP) | Changes in gene expression of GFAP (GFAP; 0.1 µM CCP) | Changes in gene expression of GFAP (GFAP; 1 µM CCP) | Changes in gene expression of GFAP (GFAP; 10 µM CCP) | Changes in gene expression of NES (NES; [4]) | Changes in gene expression of NES (NES; [5]) | Changes in gene expression of NES (NES; [6]) | Changes in gene expression of TUBA1A (TUBA1A; [4]) | Changes in gene expression of TUBA1A (TUBA1A; [5]) | Changes in gene expression of TUBA1A (TUBA1A; [6]) | IC50 [2] [µM] | Changes in gene expression of NES (NES) | Changes in gene expression of TUBA1A (TUBA1A) |
| --- | --- | --- | --- | --- | --- | --- | --- | --- | --- | --- | --- | --- | --- | --- | --- | --- | --- | --- |
| CC[C@H](C)[C@@H]1NC(=O)[C@H](Cc2ccc(OC)cc2)N(C)C(=O)[C@H]([C@@H](C)O)N2C(=O)[C@H](CC[C@H]2O)NC(=O)[C@H](CC(C)C)NC(=O)[C@@H](NC(=O)[C@H](CCC(N)=O)NC(=O)[C@H](CCc2ccc(O)cc2)NC(=O)[C@@H](O)CO)[C@@H](C)OC1=O | interacted rapidly with the monolayer | 34.2 | 18.2 ± 15.7 | 1.015 ± 0.057 | 1.051 ± 0.185 | 1.147 ± 0.105 | 1.107 ± 0.214 | 1.283 ± 0.185 | 1.016 ± 0.046 | 1.003 ± 0.164 | 1.069 ± 0.105 | 1.240 ± 0.041 | 1.124 ± 0.050 | 1.094 ± 0.172 | 1.171 ± 0.049 | – | – | – |
| C=C1C(=O)N[C@H](C)C(=O)N[C@@H](CC(C)C)C(=O)N[C@@H](C(=O)O)[C@H](C)C(=O)N[C@@H](CCCNC(=N)N)C(=O)N[C@@H](/C=C/C(C)=C/[C@H](C)[C@H](Cc2ccccc2)OC)[C@H](C)C(=O)N[C@@H](C(=O)O)CCC(=O)N1C [MC-LR, Microcystin-LR, reference compound] (R[Adda][d(γGlu)][NMeDha][dA]L[dAsp(3S-Me)]-OH; lactam N-7) | – | – | – | – | – | – | – | – | – | – | – | – | – | – | – | 4.8e-05 ± 1e-05 | 1.030 ± 0.105 and 0.877 ± 0.148 | 1.031 ± 0.064 and 0.983 ± 0.099 |
| CC(C)[C@@H]1NC(=O)[C@H](NC(=O)N[C@@H](CCCNC(=N)N)C(=O)O)CCCCNC(=O)[C@H](Cc2ccccc2)NC(=O)[C@H](C)N(C)C(=O)[C@H](CCc2ccc(O)cc2)NC1=O [anabaenopeptin B] ({Arg-CO}-[dK]V[hTyr][NMeA]F; lactam 1-C) | interacted rapidly with the monolayer | 27.1 | 12.3 ± 6.1 | 0.998 ± 0.070 | 1.039 ± 0.070 | 1.122 ± 0.033 | 1.088 ± 0.390 | – | 1.175 ± 0.148 | 0.948 ± 0.143 | 0.992 ± 0.085 | 0.931 ± 0.054 | 1.131 ± 0.031 | 1.098 ± 0.192 | 1.429 ± 0.068 | – | – | – |
| CC[C@H](C)[C@@H]1NC(=O)[C@H](NC(=O)N[C@@H](CCCNC(=N)N)C(=O)O)CCCCNC(=O)[C@H](Cc2ccccc2)NC(=O)[C@H](C)N(C)C(=O)[C@H](CCc2ccc(O)cc2)NC1=O [anabaenopeptin F] ({Arg-CO}-[dK]I[hTyr][NMeA]F; lactam 1-C) | – | – | 1 ± 0.2 | 0.935 ± 0.118 | 1.084 ± 0.138 | 1.046 ± 0.130 | 1.002 ± 0.087 | 1.096 ± 0.211 | 1.191 ± 0.435 | 1.040 ± 0.105 | 1.081 ± 0.056 | 0.886 ± 0.037 | 1.016 ± 0.098 | 1.023 ± 0.160 | 1.354 ± 0.126 | – | – | – |

Source: article PMC11436104 (Toxins, 2024)
